# From US11235023B2, “Beta-hairpin peptidomimetic with elastase inhibitory activity and aerosol dosage forms thereof” (POLYPHOR AG, priority 2016, dated 2022)
# Non-standard residues stand in square brackets, D forms with d. Residues, ends and D or L forms follow the SMILES beside them. Gly(octyl) = CCCCCCCC[C@H](N)C(=O)O
# Tests used:
# [1] = target: T1, human neutrophil elastase (Homo sapiens, UniProt P08246); test: Phase-Ib study in CF patients, active neutrophil elastase in sputum by FRET assay; type: in vivo
# T1 construct: from tissue; host or cells: spontaneous sputum of patients with cystic fibrosis (PBS-soluble fraction)
# T1 sequence (P08246 30-267): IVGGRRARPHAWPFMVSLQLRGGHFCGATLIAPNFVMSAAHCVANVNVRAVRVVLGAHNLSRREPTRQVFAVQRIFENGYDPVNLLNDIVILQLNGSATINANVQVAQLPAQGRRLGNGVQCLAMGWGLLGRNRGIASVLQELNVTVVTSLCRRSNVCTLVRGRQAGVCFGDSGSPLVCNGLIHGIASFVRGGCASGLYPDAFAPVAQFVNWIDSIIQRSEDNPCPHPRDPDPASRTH
# Method: The pharmacodynamic effect of ascending single doses of active compound was investigated by evaluation of neutrophil elastase (NE) activity in sputum using FRET (fluorescence resonance energy transfer) assay after PBS aliquotation and freezing.
# On the day of screening, if possible, for baseline assessment of NE activity, on Day −1 as soon as possible after the subject's arrival at the study site for baseline assessment of NE activity, on Day 1 in the period of time between 1 h and 3 h after start of inhalation, and in the morning of Day 2, at approx. 24 h after start of inhalation.
# Spontaneous sputum samples were collected in polystyrene Petri dishes and put on ice immediately. All processing steps had to be performed with cold reagents and on ice whenever possible. Plugs were separated from saliva, but the latter was not discarded. If a sputum sample was taken for both PK and NE activity in sputum analysis, the plug was split in 2 approximately equal parts. One part was processed for evaluation of NE activity in sputum the other one for PK analysis, as described above.
# For evaluation of NE activity in sputum, at first, the weight of the sputum sample was determined and 8 mL cold phosphate-buffered saline (PBS) per gram purified sputum was added. The sample was vortexed for 30 s at room temperature (15-24° C.). Then, the soluble fraction was separated from the sputum pellet by centrifugation (10 min at 1000×g and 4° C.). The supernatant was transferred to a fresh tube.
# Remaining insoluble particles were separated by a second centrifugation step at 3500×g for 15 min at 4° C. If the supernatant was not aliquoted immediately, the PBS/sputum supernatant was transferred to a fresh tube.
# 10 aliquots of 50 μL PBS/sputum were transferred into transfer tubes for evaluation. Moreover, 4 aliquots of 50 μL PBS/sputum were transferred into transfer tubes as backup. In case there was a leftover, the remaining volume was immediately transferred into a transfer tube for evaluation. Any leftover exceeding 2.0 mL was discarded.
# The NE activity in sputum was evaluated by using a FRET elastase assay adapted from an assay described in Nature Protocols, 2008, 3, 991 (B. Korkmaz, S. Attucci, M. A. Juliano et al.) and validated by MLM Medical Labs GmbH, Mönchengladbach, Germany.
# The assay is based on the reaction of human neutrophil elastase with the substrate 2Abz-Ala-Pro-Glu-Glu-Ile-Met-Arg-Arg-Gln-Tyr(3NO2)—OH (GeneCust Europe S. A., Ellange, Luxembourg, #P160301-SY452824). By adding the substrate solution the enzyme reaction is started and the elastase present in the samples reacts with added substrate. The product of the reaction is detected through fluorescence measurement and the initial reaction velocity is determined. The concentration of active elastase in the unknown samples is back-calculated using the calibration curve calculated from the standards.
# An elastase reference stock solution (human neutrophil elastase [ELA2], Höltzel Diagnostika, Köln, Germany, #PN31255) with known enzymatic activity was prepared. The exact active elastase enzyme concentration was determined by titration against an alpha 1-antitrypsin solution (Athens Research and Technology, Athens, USA, #16-16-011609), with a defined concentration. The active elastase reference stock solution was adjusted by addition of PBS to a concentration of 3000 nM and aliquots were stored at −80° C.
# The FRET assay was performed in 96 well white microtiter plates in total volume of 100 μL per well. PBS sputum dilutions of 1:5, 1:50 and 1:100 in elastase reaction buffer (50 mM HEPES, pH 7.4, 750 mM NaCl, 0.05% [v/v] NP-40) were prepared, 5 uL loaded per well and 90 uL elastase reaction buffer were added. A 5 mM substrate stock solution of 2Abz-Ala-Pro-Glu-Glu-Ile-Met-Arg-Arg-Gln-Tyr(3NO2)—OH in 30% (v/v) N,N-dimethylformamide/water was prepared and further diluted to 400 nM by addition of elastase reaction buffer. […]
# [2] = Phase-Ib single ascending dose study in patients with cystic fibrosis, safety and tolerability; type: in vivo, human
# From the text: In this randomised, double-blind, placebo-controlled, parallel-group (per dose level) dose-escalation study, the safety and tolerability of single ascending doses (SAD) of acetate salt of cyclo(-OctG-Glu-Thr-Ala-Ser-Ile-Pro-Pro-Gln-Lys-Tyr-^DPro-Pro-) administered by inhalation in patients with cystic fibrosis (CF) was investigated. Additionally, the pharmacokinetics of the drug following a single ascending dose in plasma and sputum as well as its pharmacodynamic effect on neutrophil elastase activity in sputum were evaluated.
# In this study, conducted by Inamed GmbH, Gauting, Germany, 24 subjects with cystic fibrosis, who fulfilled all the inclusion criteria and in whom no exclusion criterion was present, were included and received randomised treatment. They were grouped into 3 dose groups of 8 subjects each. 6 subjects received the formulation described in Example 1 and dilutions thereof and 2 subjects received placebo (0.5% [w/w] aqueous sodium chloride solution adjusted to pH 5.5 with 1 M HCl pharmaceutical grade). The oral inhalation of the above formulation as well as the placebo occurred via the Pari eFlow® XL 30 nebulizer device (Pari Pharma GmbH, Starnberg, Germany). The dose levels and corresponding concentrations of cyclo(-OctG-Glu-Thr-Ala-Ser-Ile-Pro-Pro-Gln-Lys-Tyr-^DPro-Pro-) (active compound) are summarized in Table 14.
# The volume of placebo nebulizer solution corresponded to that of the active compound at a particular dose level. The duration of inhalation was estimated to be between 7 and 20 min. Adverse events were tabulated and summarized according to the current version of Medical Dictionary for Regulatory Activities.
smiles,measurement,setting,value
"CCCCCCCC[C@@H]1NC(=O)[C@@H]2CCCN2C(=O)[C@H]2CCCN2C(=O)[C@H](Cc2ccc(O)cc2)NC(=O)[C@H](CCCCN)NC(=O)[C@H](CCC(N)=O)NC(=O)[C@@H]2CCCN2C(=O)[C@@H]2CCCN2C(=O)[C@H]([C@@H](C)CC)NC(=O)[C@H](CO)NC(=O)[C@H](C)NC(=O)[C@H]([C@@H](C)O)NC(=O)[C@H](CCC(=O)O)NC1=O [active compound, cyclo(-OctG-Glu-Thr-Ala-Ser-Ile-Pro-Pro-Gln-Lys-Tyr-^DPro-Pro-)] (cyclo([Gly(octyl)]ETASIPPQKY[dP]P))",Mean concentration of active NE in sputum after single-dose inhalation,"[1]; CF patients, 80-320 mg, extent independent of dose",strongly decreased
same,Mean concentration of active NE in sputum at 24 h after inhalation,"[1]; CF patients, high data variability",returned to baseline levels
same,Mean (SD) concentration of active NE in sputum,"[1]; dose level 1 (80 mg), 1-3 h after inhalation, predose 18823.6 (19758.72)",612.5 (1218.62) ng/mL
same,Mean (SD) concentration of active NE in sputum,"[1]; dose level 1 (80 mg), 24 h after inhalation",1467.7 (2154.43) ng/mL
same,Mean (SD) concentration of active NE in sputum,"[1]; dose level 2 (160 mg), 1-3 h after inhalation, predose 9548.7 (6222.55)",115.0 (0.00) ng/mL
same,Mean (SD) concentration of active NE in sputum,"[1]; dose level 2 (160 mg), 24 h after inhalation",16849.4 (23518.56) ng/mL
same,Mean (SD) concentration of active NE in sputum,"[1]; dose level 3 (320 mg), 1-3 h after inhalation, predose 10480.7 (10528.00)",115.0 (0.00) ng/mL
same,Mean (SD) concentration of active NE in sputum,"[1]; dose level 3 (320 mg), 24 h after inhalation",7712.5 (11394.04) ng/mL
same,Inhibition of active elastase in sputum,"[1]; over several hours after single dose, all dose groups (FIG. 5)",> 90%
same,"Deaths, serious and other significant adverse events","[2]; CF patients, single inhaled doses 80, 160, 320 mg","No death, no serious adverse events (AE) and no other significant AE"
same,Causal relationship of TEAEs,"[2]; human, in vivo",not related to the active compound
same,Inhalation-related local AEs,"[2]; human, in vivo",no inhalation-related local AEs
same,Total number of AEs (all TEAEs),"[2]; human, in vivo",6
